In patent US10131652B2, “Pyrimidinyloxy benzene derivatives as herbicides” (E. I. DU PONT DE NEMOURS AND COMPANY, priority 2014, dated 2018):

Key:
Test in all cases: Test F pre-/postemergence plant response
Type in all cases: in vivo
[1] = system: large (Lg) crabgrass (Digitaria sanguinalis); conditions: Digitaria sanguinalis, pre-emergence, scale 0 to 100, read-out: Plant response rating, Crabgrass, Large
How it was run: (§1)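 Values are visual ratings, where 100 is complete control and 0 is no effect, given after 14 to 21 days of greenhouse growth. Test chemicals in a non-phytotoxic, surfactant-containing solvent were sprayed on soil just after planting or on emerged seedlings at the 1- to 4-leaf stage.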

[2] = system: nightshade (eastern black nightshade, Solanum ptycanthum); conditions: Solanum, pre-emergence, scale 0 to 100, read-out: Plant response rating, Nightshade
How it was run: as §1

[3] = system: Brazilian crabgrass (Digitaria horizontalis); conditions: Digitaria horizontalis, pre-emergence, scale 0 to 100, read-out: Plant response rating, Crabgrass, Brazil
How it was run: as §1

[4] = system: velvetleaf (Abutilon theophrasti); conditions: Abutilon theophrasti, pre-emergence, scale 0 to 100, read-out: Plant response rating, Velvetleaf
How it was run: as §1

[5] = system: wild poinsettia (Euphorbia heterophylla); conditions: Euphorbia heterophylla, pre-emergence, scale 0 to 100, read-out: Plant response rating, Poinsettia, Wild
How it was run: as §1

[6] = system: fall panicum (Panicum dichotomiflorum); conditions: Panicum dichotomiflorum, pre-emergence, scale 0 to 100, read-out: Plant response rating, Panicum, Fall
How it was run: as §1

soybean (Glycine max) = conditions: Glycine max, pre-emergence, scale 0 to 100, read-out: Plant response rating, Soybean
How it was run: as §1

[7] = system: field bindweed (Convolvulus arvensis); conditions: Convolvulus arvensis, pre-emergence, scale 0 to 100, read-out: Plant response rating, Field Bindweed
How it was run: as §1

[8] = system: ragweed (common ragweed, Ambrosia elatior); conditions: Ambrosia artemisiifolia, pre-emergence, scale 0 to 100, read-out: Plant response rating, Ragweed
How it was run: as §1

[9] = system: goosegrass (Eleusine indica); conditions: Eleusine indica, pre-emergence, scale 0 to 100, read-out: Plant response rating, Goosegrass
How it was run: as §1

corn (Zea mays) = conditions: Zea mays, pre-emergence, scale 0 to 100
How it was run: as §1

[10] = system: hairy beggarticks (Bidens pilosa); conditions: Bidens pilosa, pre-emergence, scale 0 to 100, read-out: Plant response rating, Beggarticks
How it was run: as §1

[11] = system: yellow nutsedge (Cyperus esculentus); conditions: Cyperus, pre-emergence, scale 0 to 100, read-out: Plant response rating, Nutsedge, Yellow
How it was run: as §1

[12] = system: Italian ryegrass (Lolium multiflorum); conditions: Lolium multiflorum, pre-emergence, Preemergence, scale 0 to 100, read-out: Plant response rating, Ryegrass, Italian
How it was run: as §1

[13] = system: surinam grass (Brachiaria decumbens); conditions: Urochloa decumbens, pre-emergence, scale 0 to 100, read-out: Plant response rating, Surinam Grass
How it was run: as §1

kochia (Kochia scoparia) = conditions: Bassia scoparia, pre-emergence, Preemergence, scale 0 to 100, read-out: Plant response rating, Kochia
How it was run: as §1

Fc1cccc(Oc2ncc(Cl)cn2)c1-c1cc(C(F)(F)F)on1 [Compound 168, 5-chloro-2-[2-[5-(trifluoromethyl)-3-isoxazolyl]-3-fluorophenoxy]pyrimidine]
pest or weed control at 16 g/ha ([1]; 16 g ai/ha Preemergence): 65%
pest or weed control at 31 g/ha ([1]; 31 g ai/ha Preemergence): 95%
pest or weed control at 62 g/ha ([1]; 62 g ai/ha Preemergence): 98%
pest or weed control at 125 g/ha ([1]; 125 g ai/ha Preemergence): 100%
pest or weed control at 16 g/ha ([2]; 16 g ai/ha Preemergence): 5%
pest or weed control at 31 g/ha ([2]; 31 g ai/ha Preemergence): 98%
pest or weed control at 125 g/ha ([2]; 125 g ai/ha Preemergence): 98%
pest or weed control at 62 g/ha ([2]; Preemergence): 98%
pest or weed control at 16 g/ha ([3]; 16 g ai/ha Preemergence): 65%
pest or weed control at 31 g/ha ([3]; 31 g ai/ha Preemergence): 100%
pest or weed control at 62 g/ha ([3]; 62 g ai/ha Preemergence): 100%
pest or weed control at 125 g/ha ([3]; 125 g ai/ha Preemergence): 100%
pest or weed control at 16 g/ha ([4]; 16 g ai/ha Preemergence): 35%
pest or weed control at 31 g/ha ([4]; 31 g ai/ha Preemergence): 75%
pest or weed control at 125 g/ha ([4]; 125 g ai/ha Preemergence): 100%
pest or weed control at 62 g/ha ([4]; Preemergence): 100%
pest or weed control at 16 g/ha ([5]; 16 g ai/ha Preemergence): 0%
pest or weed control at 31 g/ha ([5]; 31 g ai/ha Preemergence): 0%
pest or weed control at 125 g/ha ([5]; 125 g ai/ha Preemergence): 90%
pest or weed control at 62 g/ha ([5]; Preemergence): 50%
pest or weed control at 16 g/ha ([6]; 16 g ai/ha Preemergence): 35%
pest or weed control at 31 g/ha ([6]; 31 g ai/ha Preemergence): 95%
pest or weed control at 125 g/ha ([6]; 125 g ai/ha Preemergence): 100%
pest or weed control at 62 g/ha ([6]; Preemergence): 100%
plant injury at 16 g/ha (soybean (Glycine max); 16 g ai/ha Preemergence): 0%
plant injury at 31 g/ha (soybean (Glycine max); 31 g ai/ha Preemergence): 0%
plant injury at 125 g/ha (soybean (Glycine max); 125 g ai/ha Preemergence): 40%
plant injury at 62 g/ha (soybean (Glycine max); Preemergence): 20%
pest or weed control at 16 g/ha ([7]; 16 g ai/ha Preemergence): 40%
pest or weed control at 31 g/ha ([7]; 31 g ai/ha Preemergence): 60%
pest or weed control at 62 g/ha ([7]; 62 g ai/ha Preemergence): 50%
pest or weed control at 125 g/ha ([7]; 125 g ai/ha Preemergence): 70%
pest or weed control at 16 g/ha ([8]; 16 g ai/ha Preemergence): 10%
pest or weed control at 31 g/ha ([8]; 31 g ai/ha Preemergence): 35%
pest or weed control at 125 g/ha ([8]; 125 g ai/ha Preemergence): 98%
pest or weed control at 62 g/ha ([8]; Preemergence): 65%
pest or weed control at 16 g/ha ([9]; 16 g ai/ha Preemergence): 80%
pest or weed control at 31 g/ha ([9]; 31 g ai/ha Preemergence): 95%
pest or weed control at 125 g/ha ([9]; 125 g ai/ha Preemergence): 100%
pest or weed control at 62 g/ha ([9]; Preemergence): 98%
Corn plant response rating (crop injury, 0 = no effect, 100 = complete kill) at 16 g/ha (corn (Zea mays); 16 g ai/ha Preemergence): 0%
Corn plant response rating (crop injury, 0 = no effect, 100 = complete kill) at 31 g/ha (corn (Zea mays); 31 g ai/ha Preemergence): 0%
Corn plant response rating (crop injury, 0 = no effect, 100 = complete kill) at 62 g/ha (corn (Zea mays); 62 g ai/ha Preemergence): 40%
Corn plant response rating (crop injury, 0 = no effect, 100 = complete kill) at 125 g/ha (corn (Zea mays); 125 g ai/ha Preemergence): 35%
pest or weed control at 16 g/ha ([10]; 16 g ai/ha Preemergence): 0%
pest or weed control at 31 g/ha ([10]; 31 g ai/ha Preemergence): 0%
pest or weed control at 62 g/ha ([10]; 62 g ai/ha Preemergence): 0%
pest or weed control at 125 g/ha ([10]; 125 g ai/ha Preemergence): 0%
pest or weed control at 16 g/ha ([11]; 16 g ai/ha Preemergence): 0%
pest or weed control at 31 g/ha ([11]; 31 g ai/ha Preemergence): 0%
pest or weed control at 125 g/ha ([11]; 125 g ai/ha Preemergence): 20%
pest or weed control at 62 g/ha ([11]; Preemergence): 0%
pest or weed control at 16 g/ha ([12]; 16 g ai/ha): 15%
pest or weed control at 31 g/ha ([12]; 31 g ai/ha): 30%
pest or weed control at 125 g/ha ([12]; 125 g ai/ha): 70%
pest or weed control at 62 g/ha [12]: 65%
pest or weed control at 16 g/ha ([13]; 16 g ai/ha Preemergence): 50%
pest or weed control at 31 g/ha ([13]; 31 g ai/ha Preemergence): 65%
pest or weed control at 125 g/ha ([13]; 125 g ai/ha Preemergence): 100%
pest or weed control at 62 g/ha ([13]; Preemergence): 70%
pest or weed control at 16 g/ha (kochia (Kochia scoparia); 16 g ai/ha): 95%
pest or weed control at 31 g/ha (kochia (Kochia scoparia); 31 g ai/ha): 100%
pest or weed control at 125 g/ha (kochia (Kochia scoparia); 125 g ai/ha): 100%
pest or weed control at 62 g/ha (kochia (Kochia scoparia)): 100%
